In patent US20260258064A1 (SIRONAX LTD., priority 2023, published 2026) one finds IC50 data, which are given here for 31 compounds.

One may read the IC50 as the concentration that gives 50% inhibition.

This assay has as its target T1, SARM1 (50-724) (Homo sapiens, UniProt Q6SZW1).
T1 construct: Purified SARM1 (50-724) with a final concentration of 2 nM was pre-incubated with a test compound
T1 sequence (Q6SZW1 50-724): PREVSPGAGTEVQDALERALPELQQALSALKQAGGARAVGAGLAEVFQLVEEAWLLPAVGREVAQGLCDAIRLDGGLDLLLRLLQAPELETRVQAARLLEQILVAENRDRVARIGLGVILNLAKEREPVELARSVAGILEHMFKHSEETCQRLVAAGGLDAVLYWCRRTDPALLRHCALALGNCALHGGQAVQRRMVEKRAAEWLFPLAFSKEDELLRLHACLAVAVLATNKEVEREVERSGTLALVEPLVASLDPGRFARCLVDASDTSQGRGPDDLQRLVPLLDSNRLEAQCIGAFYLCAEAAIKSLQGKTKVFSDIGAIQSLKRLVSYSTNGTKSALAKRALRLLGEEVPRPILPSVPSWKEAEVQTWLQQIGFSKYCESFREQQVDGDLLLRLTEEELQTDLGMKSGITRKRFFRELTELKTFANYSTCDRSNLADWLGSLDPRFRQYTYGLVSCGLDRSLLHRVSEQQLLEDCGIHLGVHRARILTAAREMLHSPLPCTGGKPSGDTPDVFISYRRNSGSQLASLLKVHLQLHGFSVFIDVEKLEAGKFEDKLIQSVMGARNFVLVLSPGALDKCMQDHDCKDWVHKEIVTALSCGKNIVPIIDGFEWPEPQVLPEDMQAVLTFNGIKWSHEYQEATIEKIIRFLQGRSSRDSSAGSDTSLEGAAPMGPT
Put plainly: SARM1 (50-724) enzymatic assay (LC-MS/MS). As to conditions: Purified SARM1 (50-724) 2 nM, NMN as activator, NAD+ as substrate, 1 h at room temperature, read-out: IC50 (SARM1 inhibitory activity). Format: biochemical. Summed up: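 Human SARM1 (50-724), 2 nM, pre-incubated 15 min at room temperature with compound in Dulbecco's PBS. Reaction started with 200 µM NMN (activator) plus […] NAD^+ substrate, run 1 h at room temperature, quenched with 70% acetonitrile. Turnover quantified by LC-MS/MS; IC50 reported.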
As to `Fc1cccc(-n2c(CCc3nccs3)nnc2-c2nc3cc(C(F)(F)F)ccc3[nH]2)c1Cl` [Compound 419, 2-(2-(4-(2-chloro-3-fluorophenyl)-5-(5-(trifluoromethyl)-1H-benzo[d]imidazol-2-yl)-4H-1,2,4-triazol-3-yl)ethyl)thiazole], the IC50 was 100 to 500 nM.

Turning to `FC(F)(F)c1ccc2[nH]c(-c3cccn3-c3nccnc3C(F)(F)F)nc2c1` [Compound 313], the 50% inhibitory concentration (IC50) lay in the range of 500 to 1000 nM.

Regarding `FC(F)(Cl)Oc1cnccc1-n1cnnc1-c1nc2cc(C(F)(F)F)ccc2[nH]1` [Compound 215, 2-(4-(3-(chlorodifluoromethoxy)pyridin-4-yl)-4H-1,2,4-triazol-3-yl)-5-(trifluoromethyl)-1H-benzo[d]imidazole], the 50% inhibitory concentration (IC50) is at most 100 nM.

For `FC(F)(F)c1ccc2[nH]c(-c3nncn3-c3cnccc3C(F)(F)F)c(C3CC3)c2c1` [Compound 366, 3-cyclopropyl-5-(trifluoromethyl)-2-(4-(4-(trifluoromethyl)pyridin-3-yl)-4H-1,2,4-triazol-3-yl)-1H-indole], the 50% inhibitory concentration (IC50) is at most 100 nM.

In the case of `Cn1cc(OC(F)(F)F)c(-n2cnnc2-c2nc3cc(C(F)(F)F)ccc3[nH]2)cc1=S` [Compound 242, 1-methyl-5-(trifluoromethoxy)-4-(3-(5-(trifluoromethyl)-1H-benzo[d]imidazol-2-yl)-4H-1,2,4-triazol-4-yl)pyridine-2(1H)-thione], the IC50 was at most 100 nM.

`O=c1cc(-n2cnnc2-c2nc3cc(C(F)(F)F)ccc3[nH]2)c(Cl)c[nH]1` [Compound 163, 5-Chloro-4-(3-(5-(trifluoromethyl)-1H-benzo[d]imidazol-2-yl)-4H-1,2,4-triazol-4-yl)pyridin-2(1H)-one]: the 50% inhibitory concentration (IC50) was at most 100 nM.

As for `Fc1cccc(-n2nccc2-c2nc3cc(C(F)(F)F)ccc3[nH]2)c1Cl` [Compound 443, 2-(1-(2-chloro-3-fluorophenyl)-1H-pyrazol-5-yl)-5-(trifluoromethyl)-1H-benzo[d]imidazole], the IC50 was in the range of 100 to 500 nM.

Regarding `C[S+]([O-])Cc1nnc(-c2nc3cc(C(F)(F)F)ccc3[nH]2)n1-c1cccc(Cl)c1Cl` (single isomer, unassigned) [Compound 147, 2-(4-(2,3-dichlorophenyl)-5-((methylsulfinyl)methyl)-4H-1,2,4-triazol-3-yl)-5-(trifluoromethyl)-1H-benzo[d]imidazole], the IC50 is at most 100 nM.

For `[O-][S+]1CCN(c2ccccc2)C(c2nc3cc(C(F)(F)F)ccc3[nH]2)C1` (stereo not shown) [Compound 325, 4-phenyl-3-(5-(trifluoromethyl)-1H-benzo[d]imidazole-2-yl)thiomorpholine 1-oxide], the IC50 is over 1000 nM.

Take `Fc1cc(C(F)(F)c2ccncc2)cc2nc(-c3nncn3-c3cnccc3C(F)(F)F)[nH]c12` [Compound 464, 6-(difluoro(pyridin-4-yl)methyl)-4-fluoro-2-(4-(4-(trifluoromethyl)pyridin-3-yl)-4H-1,2,4-triazol-3-yl)-1H-benzo[d]imidazole]: the IC50 was at most 100 nM.

As for `OCCOCc1nnc(-c2nc3cc(C(F)(F)F)ccc3[nH]2)n1-c1cccc(Cl)c1Cl` [Example 126], the IC50 is at most 100 nM.

`Fc1cc(N2CCC(F)(F)C2)cc2nc(-c3nncn3-c3cnccc3C(F)(F)F)[nH]c12` [Compound 326, 5-(3,3-difluoropyrrolidin-1-yl)-7-fluoro-2-(4-(4-(trifluoromethyl)pyridin-3-yl)-4H-1,2,4-triazol-3-yl)-1H-benzo[d]imidazole]: the IC50 lay in the range of 100 to 500 nM.

Regarding `CC(C#N)(CO)c1ccc2[nH]c(-c3nncn3-c3cccc(F)c3Cl)nc2c1` (stereo not shown) [Compound 204, 2-(2-(4-(2-chloro-3-fluorophenyl)-4H-1,2,4-triazol-3-yl)-1H-benzo[d]imidazol-5-yl)-3-hydroxy-2-methylpropanenitrile], the IC50 is at most 100 nM.

For `Cc1cncc(-n2cnnc2-c2nc3cc(C(F)(F)F)ccc3[nH]2)c1Cl` [Example 123], the IC50 was at most 100 nM.

Take `Fc1cc(CC(F)(F)F)cc2nc(-c3nncn3-c3cnccc3C(F)(F)F)[nH]c12` [Compound 282, 7-fluoro-5-(2,2,2-trifluoroethyl)-2-(4-(4-(trifluoromethyl)pyridin-3-yl)-4H-1,2,4-triazol-3-yl)-1H-benzo[d]imidazole]: the IC50 is at most 100 nM.

Consider `OCc1nnc(-c2nc3cc(C(F)(F)F)ccc3[nH]2)n1-c1cccc(Cl)c1Cl` [Example 90], for which the IC50 was at most 100 nM.

Turning to `FC(F)(F)c1ccc2[nH]c(-c3n[nH]nc3-c3cccc(Cl)c3Cl)nc2c1` [Compound 274, 2-(5-(2,3-dichlorophenyl)-2H-1,2,3-triazol-4-yl)-5-(trifluoromethyl)-1H-benzo[d]imidazole], the concentration for half-maximal inhibition (IC50) was 500 to 1000 nM.

Take `COc1ncc(Cl)c(-n2cnnc2-c2nc3cc(C(F)(F)F)ccc3[nH]2)n1` [Compound 169, 2-(4-(5-chloro-2-methoxypyrimidin-4-yl)-4H-1,2,4-triazol-3-yl)-5-(trifluoromethyl)-1H-benzo[d]imidazole]: the IC50 is over 1000 nM.

Take `CCn1ccc2[nH]c(-c3nncn3-c3cccc(F)c3Cl)cc2c1=O` [Compound 308, 2-(4-(2-chloro-3-fluorophenyl)-4H-1,2,4-triazol-3-yl)-5-ethyl-1,5-dihydro-4H-pyrrolo[3,2-c]pyridin-4-one]: the IC50 was in the range of 100 to 500 nM.

Regarding `FC(F)(F)c1cc2nc(-c3nncn3-c3cccc(Cl)c3Cl)[nH]c2cn1` [Compound 142, 2-(4-(2,3-dichlorophenyl)-4H-1,2,4-triazol-3-yl)-6-(trifluoromethyl)-3H-imidazo[4,5-c]pyridine], the half-maximal inhibitory concentration (IC50) is over 1000 nM.

Turning to `CC(O)C(C)(C)c1ccc2[nH]c(-c3nncn3-c3cccc(Cl)c3Cl)nc2c1` (stereo not shown) [Compound 140, 3-(2-(4-(2,3-dichlorophenyl)-4H-1,2,4-triazol-3-yl)-1H-benzo[d]imidazol-5-yl)-3-methylbutan-2-ol], the IC50 was at most 100 nM.

For the compound `OCC1CC1c1cc(F)c2[nH]c(-c3nncn3-c3cnccc3C(F)(F)F)nc2c1` (stereo not shown) [Compound 416, (2-(7-fluoro-2-(4-(4-(trifluoromethyl)pyridin-3-yl)-4H-1,2,4-triazol-3-yl)-1H-benzo[d]imidazol-5-yl)cyclopropyl)methanol], the IC50 was at most 100 nM.

As for `OCCc1cccc(OC(F)(F)F)c1-n1cnnc1-c1nc2cc(C(F)(F)F)ccc2[nH]1` [Compound 295, 2-(3-(trifluoromethoxy)-2-(3-(5-(trifluoromethyl)-1H-benzo[d]imidazol-2-yl)-4H-1,2,4-triazol-4-yl)phenyl)ethan-1-ol], the half-maximal inhibitory concentration (IC50) is at most 100 nM.

With `CC1(c2ccc3[nH]c(-c4nncn4-c4cccc(F)c4Cl)nc3c2)CS(=O)(=O)C1` [Compound 178, 3-(2-(4-(2-chloro-3-fluorophenyl)-4H-1,2,4-triazol-3-yl)-1H-benzo[d]imidazol-5-yl)-3-methylthietane 1,1-dioxide], the IC50 lay in the range of 100 to 500 nM.

Turning to `Clc1cccc(-n2cnnc2-c2nc3cc(Br)ccc3[nH]2)c1Cl` [Compound 49, 5-bromo-2-(4-(2,3-dichlorophenyl)-4H-1,2,4-triazol-3-yl)-1H-benzo[d]imidazole], the IC50 was at most 100 nM.

Turning to `CN(CCCC(N)=O)c1cc(F)c2[nH]c(-c3nncn3-c3cnccc3C(F)(F)F)nc2c1` [Compound 455, 4-((4-fluoro-2-(4-(4-(trifluoromethyl)pyridin-3-yl)-4H-1,2,4-triazol-3-yl)-1H-benzo[d]imidazol-6-yl)(methyl)amino)butanamide], the IC50 is at most 100 nM.

Regarding `CC(C)Oc1ccc2[nH]c(-c3nncn3-c3cccc(Cl)c3Cl)nc2c1` [compound 109], the IC50 was at most 100 nM.

As for `CC(c1cc(F)c2[nH]c(-c3nncn3-c3cnccc3C(F)(F)F)nc2c1)c1cc[nH]n1` (stereo not shown) [Compound 430, 5-(1-(1H-pyrazol-5-yl)ethyl)-7-fluoro-2-(4-(4-(trifluoromethyl)pyridin-3-yl)-4H-1,2,4-triazol-3-yl)-1H-benzo[d]imidazole], the IC50 is at most 100 nM.

For the compound `FC(F)C12CC(n3cnnc3-c3nc4cc(C(F)(F)F)ccc4[nH]3)(C1)C2` [Compound 214, 2-(4-(3-(difluoromethyl)bicyclo[1.1.1]pentan-1-yl)-4H-1,2,4-triazol-3-yl)-5-(trifluoromethyl)-1H-benzo[d]imidazole], the IC50 was over 1000 nM.

On to `OCc1cccc(OC(F)(F)F)c1-n1cnnc1-c1nc2cc(C(F)(F)F)ccc2[nH]1` [Compound 261, (3-(trifluoromethoxy)-2-(3-(5-(trifluoromethyl)-1H-benzo[d]imidazol-2-yl)-4H-1,2,4-triazol-4-yl)phenyl)methanol], for which the concentration for half-maximal inhibition (IC50) was at most 100 nM.

Consider `O=C1CN(c2ccccc2)C(c2nc3cc(C(F)(F)F)ccc3[nH]2)CN1` (stereo not shown) [Compound 369, 4-phenyl-5-(5-(trifluoromethyl)-1H-benzo[d]imidazol-2-yl)piperazin-2-one], for which the half-inhibitory concentration (IC50) was over 1000 nM.
